Test results published in the NIST ThermoML archive (doi:10.1021/acs.jced.7b00782).
Numbers after ± are expanded uncertainties.

Conditions: Closed cell (Static) method

vapor or sublimation pressure (105.89 K, Crystal)	vapor or sublimation pressure (135.8 K, Liquid)	vapor or sublimation pressure (146.22 K, Liquid)	SMILES	vapor or sublimation pressure (105.89 K, Liquid)	vapor or sublimation pressure (127.32 K, Liquid)
–	–	–	[C-]#[O+] [carbon monoxide]	830 ± 40 kPa	2682 ± 40 kPa
13.6 ± 20 kPa	410.9 ± 26 kPa	987.8 ± 30 kPa	[N]=O [nitrogen oxide (NO)]	–	188.3 ± 23 kPa
–	2605.6 ± 58 kPa	4028.9 ± 58 kPa	[Ar] [argon]	–	–
